Experimental data reported in paper PMC6270455, “Antibacterial and Herbicidal Activity of Ring-Substituted 3-Hydroxynaphthalene-2-carboxanilides” (Molecules, 2013).
Values after ≈ are worked out from the molar mass of the structure shown. Values joined by “and” are separate entries in the source; they are usually repeats but may differ in a detail not shown here. Equal values may be shown once. Read-outs that look alike come from different tables or passages of the source.

Key:
[1] = system: methicillin-resistant S. aureus SA 3202; test: In vitro antibacterial susceptibility testing, broth dilution micro-method; format: cell-based, Staphylococcus aureus; conditions: clinical isolate MRSA SA 3202, MH broth, 24 h, 37 °C; for MIC: Staphylococcus aureus
Protocol: (§1) The synthesized compounds were evaluated for in vitro antibacterial activity against representatives of multidrug-resistant bacteria, clinical isolates of methicillin-resistant Staphylococcus aureus (MRSA) 63718, SA 630 and SA 3202 that were obtained from the National Institute of Public Health, Prague, Czech Republic. Staphylococcus aureus ATCC 29213 was used as a reference and quality control strain. Ampicillin (Sigma-Aldrich) was used as the standard. Prior to testing, each strain was passaged onto nutrient agar (Oxoid, Hampshire, UK) with 5% of bovine blood, and bacterial inocula were prepared by suspending a small portion of bacterial colony in sterile phosphate buffered saline (pH 7.2–7.3). The cell density was adjusted to 0.5 McFarland units using a densitometer (Densi-La-Meter, LIAP, Riga, Latvia). The final inoculum was made by 1:20 dilution of the suspension with the Mueller-Hinton broth (MH broth). […] The broth dilution micro-method modified according to NCCLS guidelines in MH broth was used to determine the minimum inhibitory concentration (MIC). Drug-free controls, sterility controls and controls consisted of MH broth and DMSO alone were included. The determination of results was performed visually after 24 h of static incubation in the darkness at 37 °C in an aerobic atmosphere. The MICs were defined as the lowest concentration of the compound at which no visible bacterial growth was observed.

[2] = system: methicillin-resistant S. aureus SA 630; test: as above; format: cell-based, Staphylococcus aureus; conditions: clinical isolate MRSA SA 630, MH broth, 24 h, 37 °C; for MIC: Staphylococcus aureus
Protocol: as §1

[3] = system: Mycobacterium marinum CAMP 5644; test: In vitro antimycobacterial evaluation, broth dilution micro-method; format: cell-based; conditions: CAMP5644, 504 h, Middlebrook 7H9, 21 days, 28 °C
[4] = system: Staphylococcus aureus ATCC 29213; test: In vitro antibacterial susceptibility testing, broth dilution micro-method; format: cell-based; conditions: 24 h, 37 °C; for MIC: ATCC29213, MH broth
Protocol: as §1

[5] = system: methicillin-resistant Staphylococcus aureus (MRSA) 63718; test: as above; format: cell-based; conditions: clinical isolate MRSA 63718, MH broth, 24 h, 37 °C; for MIC: Staphylococcus aureus
Protocol: as §1

[6] = Lipophilicity determination by RP-HPLC (capacity factor, log k); format: physicochemical; conditions: RP-HPLC capacity factor logarithm; C18 column, MeOH 60% / H2O 40%, 40 °C
Protocol: Lipophilicity of the studied compounds was determined by RP-HPLC as capacity factor logarithm (log k) and calculated as log P using ACD/Percepta software. […] It is important to note that lipophilicity also has a great impact on target and off-target interactions, as mentioned below.
A HPLC system Agilent 1200 equipped with DAD detector (Agilent, Santa Clara, CA, USA) was used. A chromatographic column Symmetry® C18 5 μm, 4.6 × 250 mm, Part No. WAT054275, (Waters Corp., Milford, MA, USA) was used. The HPLC separation process was monitored and evaluated by EZChrom Elite software ver. 3.3.2 (Agilent). Isocratic elution by a mixture of MeOH p.a. (60%) and H2O-HPLC Mili-Q grade (40%) as a mobile phase was used. The total flow of the column was 1.0 mL/min, injection 20 μL, column temperature 40 °C and sample temperature 10 °C. The detection wavelength 210 nm was chosen. The KI methanolic solution was used for the dead time (tD) determination. Retention times (tR) were measured in minutes. The capacity factors k were calculated according to formula k = (tR − tD)/tD, where tR is the retention time of the solute, whereas tD denotes the dead time obtained using an unretained analyte. Log k, calculated from the capacity factor k, is used as the lipophilicity index converted to log P scale.

[7] = system: photosynthetic electron transport (PET) in spinach chloroplasts; test: Inhibition of photosynthetic electron transport (PET) in spinach chloroplasts (DCPIP photoreduction); format: biochemical, Spinacia oleracea L.
Protocol: Chloroplasts were prepared from spinach (Spinacia oleracea L.) according to Masarovicova and Kralova. The inhibition of photosynthetic electron transport (PET) in spinach chloroplasts was determined spectrophotometrically (Genesys 6, Thermo Scientific), using an artificial electron acceptor 2,6-dichlorophenol-indophenol (DCIPP) according to Kralova et al., and the rate of photosynthetic electron transport was monitored as a photoreduction of DCPIP. The measurements were carried out in phosphate buffer (0.02 mol/L, pH 7.2) containing sucrose (0.4 mol/L), MgCl2 (0.005 mol/L) and NaCl (0.015 mol/L). The chlorophyll content was 30 mg/L in these experiments and the samples were irradiated (~100 W/m^2 with 10 cm distance) with a halogen lamp (250 W) using a 4 cm water filter to prevent warming of the samples (suspension temperature 22 °C). The studied compounds were dissolved in DMSO due to their limited water solubility. […] The inhibitory efficiency of the studied compounds was expressed by IC50 values, i.e., by molar concentration of the compounds causing 50% decrease in the oxygen evolution rate relative to the untreated control.

M. kansasii DSM 44162 = test: In vitro antimycobacterial evaluation, broth dilution micro-method; format: cell-based; conditions: Mycobacterium kansasii, DSM44162, 168 h, Middlebrook 7H9, 7 days, 37 °C
[8] = system: human monocytic leukemia THP-1 cells; conditions: assessed in this line formerly; cited from earlier work
[9] = system: human monocytic leukemia THP-1 cells; format: cell-based; conditions: 24 h
Protocol: Human monocytic leukemia THP-1 cells were used for in vitro toxicity assay. Cells were obtained from the European Collection of Cell Cultures (ECACC, Salisbury, UK) and routinely cultured in RPMI medium supplemented with 10% fetal bovine serum, 2% L-glutamine, 1% penicillin and streptomycin at 37 °C with 5% CO2. Cytotoxicity was determined using a WST-1 assay kit (Roche Diagnostics, Mannheim, Germany) according to the manufacturer’s instructions. The tested compounds were dissolved in DMSO and added in five increasing concentrations (0.37, 1.1, 3.3, 10, and 30 μmol/L) to the cell suspension in the culture medium. Subsequently, the cells were incubated for 24 h at 37 °C with 5% CO2. WST-1 assays conducted in triplicates were performed as previously described. The median lethal dose values, LD50, were deduced through the production of a dose-response curve. All data were evaluated using GraphPad Prism 5.00 software (GraphPad Software, San Diego, CA, USA).

[10] = phosphate buffer pH 7.2, DCPIP acceptor
[11] = as quoted in the chlorophyll a fluorescence discussion

O=C(Nc1ccccc1Br)c1cc2ccccc2cc1O [6a, N-(2-Bromophenyl)-3-hydroxynaphthalene-2-carboxamide]
MIC [1]: > 748 µM | MIC [2]: > 748 µM | MIC [3]: > 748 µM | MIC [4]: > 748 µM | MIC [5]: > 748 µM | log k [6]: 0.9715 | IC50 [7, 10]: 43.2 µM | MIC (M. kansasii DSM 44162): 748 µM (≈ 256 µg/mL)

O=C(Nc1cccc(C(F)(F)F)c1)c1cc2ccccc2cc1O [7b, 3-Hydroxy-N-(3-trifluoromethylphenyl)naphthalene-2-carboxamide]
MIC [1]: 187 µM (≈ 62 µg/mL) | MIC [2]: 374 µM (≈ 124 µg/mL) | MIC [3]: > 748 µM | MIC [4]: > 748 µM | MIC [5]: > 748 µM | log k [6]: 1.2053 | MIC (M. kansasii DSM 44162): 748 µM (≈ 248 µg/mL)

O=C(Nc1ccc(C(F)(F)F)cc1)c1cc2ccccc2cc1O [7c, 3-Hydroxy-N-(4-trifluoromethylphenyl)naphthalene-2-carboxamide]
MIC [1]: 187 µM (≈ 62 µg/mL) | MIC [2]: 374 µM (≈ 124 µg/mL) | MIC [3]: > 748 µM | MIC [4]: > 748 µM | MIC [5]: > 748 µM | log k [6]: 1.2835 | MIC (M. kansasii DSM 44162): 187 µM (≈ 62 µg/mL)

CN(C)C(=O)Nc1ccc(Cl)c(Cl)c1 [DCMU, 3-(3,4-dichlorophenyl)-1,1-dimethylurea, reference compound]
IC50 [7, 10]: ~1.9 µM and 1.9 µM

CC[C@@]1(O)C(=O)OCc2c1cc1n(c2=O)Cc2cc3ccccc3nc2-1 [camptothecin]
LD50 [8]: 0.20 ± 0.07 µmol/L

O=C(Nc1ccccc1)c1cc2ccccc2cc1O [compound 1, 3-Hydroxy-N-phenylnaphthalene-2-carboxamide]
MIC [1]: > 972 µM | MIC [2]: > 972 µM | MIC [3]: 122 µM (≈ 32.1 µg/mL) | MIC [4]: > 972 µM | MIC [5]: > 972 µM | log k [6]: 0.6310 | MIC (M. kansasii DSM 44162): 972 µM (≈ 256 µg/mL)

COc1ccccc1NC(=O)c1cc2ccccc2cc1O [compound 2a, 3-Hydroxy-N-(2-methoxyphenyl)naphthalene-2-carboxamide]
MIC [1]: 55 µM (≈ 16.1 µg/mL) | MIC MRSA 3202 [1]: 55 µM (≈ 16.1 µg/mL) | MIC [2]: 55 µM (≈ 16.1 µg/mL) | MIC MRSA 630 [2]: 55 µM (≈ 16.1 µg/mL) | MIC [3]: 873 µM (≈ 256 µg/mL) | MIC [4]: 55 µM (≈ 16.1 µg/mL) | MIC SA ([4]; MH broth): 55 µM (≈ 16.1 µg/mL) | MIC [5]: 55 µM (≈ 16.1 µg/mL) | MIC MRSA 63718 [5]: 55 µM (≈ 16.1 µg/mL) | log k [6]: 0.6916 | IC50 [7, 10]: 59.5 µM | MIC (M. kansasii DSM 44162): 218 µM (≈ 63.9 µg/mL)

COc1cccc(NC(=O)c2cc3ccccc3cc2O)c1 [compound 2b, 3-Hydroxy-N-(3-methoxyphenyl)naphthalene-2-carboxamide]
MIC [1]: > 873 µM | MIC [2]: > 873 µM | MIC [3]: > 873 µM | MIC [4]: > 873 µM | MIC [5]: > 873 µM | log k [6]: 0.6971 | IC50 [7, 11]: 53.4 µM | IC50 [7, 10]: 53.4 µM | MIC (M. kansasii DSM 44162): 54.6 µM (≈ 16 µg/mL)

O=C(Nc1ccccc1F)c1cc2ccccc2cc1O [compound 4a, N-(2-Fluorophenyl)-3-hydroxynaphthalene-2-carboxamide]
MIC [1]: 228 µM (≈ 64.1 µg/mL) | MIC [2]: 455 µM (≈ 128 µg/mL) | MIC [3]: 28.4 µM (≈ 7.99 µg/mL) | MIC [4]: > 910 µM | MIC [5]: > 910 µM | log k [6]: 0.7303 | MIC (M. kansasii DSM 44162): 56.9 µM (≈ 16 µg/mL)

O=C(Nc1ccccc1C(F)(F)F)c1cc2ccccc2cc1O [compound 7a, 3-Hydroxy-N-(2-trifluoromethylphenyl)naphthalene-2-carboxamide]
MIC [1]: 97 µM (≈ 32.1 µg/mL) | MIC [2]: > 773 µM | MIC [3]: 193 µM (≈ 63.9 µg/mL) | MIC [4]: > 773 µM | MIC [5]: > 773 µM | log k [6]: 0.8762 | IC50 [7, 11]: 105 µM | IC50 [7, 10]: 105 µM | LD50 [9]: 28.6 ± 0.5 µmol/L | MIC (M. kansasii DSM 44162): 193 µM (≈ 63.9 µg/mL)

O=C(Nc1ccccc1[N+](=O)[O-])c1cc2ccccc2cc1O [compound 8a, 3-Hydroxy-N-(2-nitrophenyl)naphthalene-2-carboxamide]
MIC [1]: 415 µM (≈ 128 µg/mL) | MIC [2]: 415 µM (≈ 128 µg/mL) | MIC [3]: 830 µM (≈ 256 µg/mL) | MIC [4]: > 830 µM | MIC [5]: > 830 µM | log k [6]: 0.8710 | IC50 [7, 10]: 107 µM | MIC (M. kansasii DSM 44162): 830 µM (≈ 256 µg/mL)

O=C(Nc1cccc([N+](=O)[O-])c1)c1cc2ccccc2cc1O [compound 8b, 3-Hydroxy-N-(3-nitrophenyl)naphthalene-2-carboxamide]
MIC [1]: > 830 µM | MIC [2]: > 830 µM | MIC [3]: > 830 µM | MIC [4]: > 830 µM | MIC [5]: > 830 µM | log k [6]: 0.8143 | IC50 [7, 10]: 16.9 µM | LD50 [9]: 2.5 ± 0.9 µmol/L | MIC (M. kansasii DSM 44162): 415 µM (≈ 128 µg/mL)

O=C(Nc1ccc([N+](=O)[O-])cc1)c1cc2ccccc2cc1O [compound 8c, 3-Hydroxy-N-(4-nitrophenyl)naphthalene-2-carboxamide]
MIC [1]: > 830 µM | MIC [2]: > 830 µM | MIC [3]: > 830 µM | MIC [4]: > 830 µM | MIC [5]: > 830 µM | log k [6]: 0.9175 | IC50 [7, 10]: 188 µM | MIC (M. kansasii DSM 44162): 13 µM (≈ 4.01 µg/mL)
